“And” between values parts separate entries of the source, which are not always exact repeats. Equal values may be shown once.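 Growth conditions: 96-well plates. Treatment: test compound, 48 hours, 5 concentrations. Analysis: linear interpolation between bracketing concentrations; unreached endpoints set to highest concentration. At the GI50, growth is halved. The concentration for full growth arrest is given as TGI.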

Among the test systems are NCI-H23 lung; ACHN renal; HCT-15 colon; HCT-116 colon; NCI-H460 lung; SN12C renal; 786-0 renal; SNB-19 CNS; EKVX NSCLC; HOP-62 NSCLC.
Holding throughout (assay): NCI tumour cell line growth inhibition, 48 h

In the case of `CN1CCN(c2ccc(OC(F)(F)F)c(Nc3ncc4c(n3)-c3c(c(C(N)=O)nn3CCO)CC4)c2)CC1`, the GI50 with NCI-H23 lung was 39.7 nM and 73.2 nM; with ACHN renal, 430 nM and 814 nM; with HCT-15 colon it was 213 nM and 266 nM; in the experiment with HCT-116 colon, 35.3 nM and 45.2 nM; in the experiment on NCI-H460 lung it was 39.1 nM and 84.9 nM; with SN12C renal, 1130 nM and 721 nM. Further, the GI50 was 428 nM and 466 nM in the experiment with 786-0 renal; 61.1 nM and 67.4 nM in the experiment on SNB-19 CNS; 90.7 nM and 169 nM in the experiment on EKVX NSCLC; 72.3 nM and 54.7 nM in the experiment with HOP-62 NSCLC. The TGI with NCI-H23 lung was 17600 nM and > 10000 nM; with ACHN renal, 20200 nM and > 10000 nM; in the experiment on HCT-15 colon it was above 100000 nM; in the experiment with HCT-116 colon, 18700 nM and > 10000 nM; in the experiment with NCI-H460 lung, 14900 nM and > 10000 nM; in the experiment on SN12C renal it was 20700 nM and > 10000 nM. The TGI in the experiment with 786-0 renal is 32400 nM and > 10000 nM; with SNB-19 CNS, above 100000 nM; in the experiment on EKVX NSCLC it was above 88200 nM; in the experiment with HOP-62 NSCLC, 27100 nM and > 10000 nM.

For the origin of these results see PubChem BioAssay (NCI).
